Values after ≈ are worked out from the molar mass of the structure shown.
Key:
Type in all cases: functional
Escherichia coli [1] = experiment: Antibacterial activity against Escherichia coli ATCC 25922 assessed as inhibition of bacterial growth measured after 24 hrs by CLSI based broth microdilution method
Pseudomonas aeruginosa [2] = experiment: Antibacterial activity against Pseudomonas aeruginosa ATCC 27853 assessed as inhibition of bacterial growth measured after 24 hrs by CLSI based broth microdilution method
Pseudomonas aeruginosa [3] = experiment: Antibacterial activity against Pseudomonas aeruginosa assessed as inhibition of bacterial growth measured after 24 hrs by CLSI based broth microdilution method
Staphylococcus aureus [4] = experiment: Potency index, ratio of sulfamethoxazole MIC to test compound MIC for antibacterial activity against Staphylococcus aureus assessed as inhibition of bacterial growth measured after 24 hrs by CLSI based broth microdilution method
Enterococcus faecalis = experiment: Antibacterial activity against Enterococcus faecalis assessed as inhibition of bacterial growth measured after 24 hrs by CLSI based broth microdilution method
Staphylococcus aureus [5] = experiment: Potency index, ratio of sulfamethoxazole MIC to test compound MIC for antibacterial activity against Staphylococcus aureus ATCC 25923 assessed as inhibition of bacterial growth measured after 24 hrs by CLSI based broth microdilution method
Klebsiella pneumoniae [6] = experiment: Potency index, ratio of sulfamethoxazole MIC to test compound MIC for antibacterial activity against Klebsiella pneumoniae assessed as inhibition of bacterial growth measured after 24 hrs by CLSI based broth microdilution method
Staphylococcus aureus [7] = experiment: Antibacterial activity against Staphylococcus aureus assessed as inhibition of bacterial growth measured after 24 hrs by CLSI based broth microdilution method
Klebsiella pneumoniae [8] = experiment: Antibacterial activity against Klebsiella pneumoniae assessed as inhibition of bacterial growth measured after 24 hrs by CLSI based broth microdilution method
Staphylococcus aureus [9] = experiment: Antibacterial activity against Staphylococcus aureus ATCC 25923 assessed as inhibition of bacterial growth measured after 24 hrs by CLSI based broth microdilution method
Acinetobacter baumannii = experiment: Antibacterial activity against Acinetobacter baumannii assessed as inhibition of bacterial growth measured after 24 hrs by CLSI based broth microdilution method
Escherichia coli [10] = experiment: Antibacterial activity against Escherichia coli assessed as inhibition of bacterial growth measured after 24 hrs by CLSI based broth microdilution method
Staphylococcus aureus [11] = experiment: Antibacterial activity against methicillin-resistant Staphylococcus aureus N315 assessed as inhibition of bacterial growth measured after 24 hrs by CLSI based broth microdilution method
Klebsiella pneumoniae [12] = experiment: Potency index, ratio of aloe emodin MIC to test compound MIC for antibacterial activity against Klebsiella pneumoniae assessed as inhibition of bacterial growth measured after 24 hrs by CLSI based broth microdilution method
Klebsiella pneumoniae [13] = experiment: Potency index, ratio of norfloxacin MIC to test compound MIC for antibacterial activity against Klebsiella pneumoniae assessed as inhibition of bacterial growth measured after 24 hrs by CLSI based broth microdilution method

| Compound | MIC (Escherichia coli [1]) [µg/mL] | MIC (Pseudomonas aeruginosa [2]) [µg/mL] | MIC (Pseudomonas aeruginosa [3]) [µg/mL] | Ratio (Staphylococcus aureus [4]) | MIC (Enterococcus faecalis) [µg/mL] | Ratio (Staphylococcus aureus [5]) | Ratio (Klebsiella pneumoniae [6]) | MIC (Staphylococcus aureus [7]) [µg/mL] | MIC (Klebsiella pneumoniae [8]) [µg/mL] | MIC (Staphylococcus aureus [9]) [µg/mL] | MIC (Acinetobacter baumannii) [µg/mL] | MIC (Escherichia coli [10]) [µg/mL] | MIC (Staphylococcus aureus [11]) [µg/mL] | Ratio (Klebsiella pneumoniae [12]) | Ratio (Klebsiella pneumoniae [13]) |
| --- | --- | --- | --- | --- | --- | --- | --- | --- | --- | --- | --- | --- | --- | --- | --- |
| CCOP(=O)(OCC)C(Nc1ccc(S(=O)(=O)Nc2cc(C)on2)cc1)c1cc(O)c2c(c1)C(=O)c1cccc(O)c1C2=O (stereo not given) | 32 (≈ 49.9 µM) | 32 (≈ 49.9 µM) | 32 (≈ 49.9 µM) | 16 | 256 (≈ 399 µM) | 64 | 4 | 0.5 (≈ 0.779 µM) | 2 (≈ 3.12 µM) | 0.5 (≈ 0.779 µM) | 64 (≈ 99.8 µM) | 64 (≈ 99.8 µM) | 64 (≈ 99.8 µM) | 32 | 2 |
| CCCCOP(=O)(OCCCC)C(Nc1ccc(S(N)(=O)=O)cc1)c1cc(O)c2c(c1)C(=O)c1cccc(O)c1C2=O (stereo not given) | 256 (≈ 415 µM) | 256 (≈ 415 µM) | 256 (≈ 415 µM) |  | 128 (≈ 208 µM) |  |  | 256 (≈ 415 µM) | 256 (≈ 415 µM) | 256 (≈ 415 µM) | 256 (≈ 415 µM) | 256 (≈ 415 µM) | 64 (≈ 104 µM) |  |  |
| Cc1noc(NS(=O)(=O)c2ccc(NC(c3cc(O)c4c(c3)C(=O)c3cccc(O)c3C4=O)P(=O)(Oc3ccccc3)Oc3ccccc3)cc2)c1C (stereo not given) | 64 (≈ 85.1 µM) | 64 (≈ 85.1 µM) | 32 (≈ 42.6 µM) |  | 64 (≈ 85.1 µM) |  |  | 16 (≈ 21.3 µM) | 128 (≈ 170 µM) | 16 (≈ 21.3 µM) | 128 (≈ 170 µM) | 64 (≈ 85.1 µM) | 32 (≈ 42.6 µM) |  |  |
| O=C1c2cccc(O)c2C(=O)c2c(O)cc(CO)cc21 [ALOE-EMODIN] | 4 (≈ 14.8 µM) | 4 (≈ 14.8 µM) | 16 (≈ 59.2 µM) |  | 32 (≈ 118 µM) |  |  | 64 (≈ 237 µM) | 64 (≈ 237 µM) | 8 (≈ 29.6 µM) | 8 (≈ 29.6 µM) | 8 (≈ 29.6 µM) | 16 (≈ 59.2 µM) |  |  |
| O=C1c2cccc(O)c2C(=O)c2c(O)cc(C(Nc3ccc(S(=O)(=O)Nc4nccs4)cc3)P(=O)(Oc3ccccc3)Oc3ccccc3)cc21 (stereo not given) | 64 (≈ 86.5 µM) | 128 (≈ 173 µM) | 32 (≈ 43.3 µM) |  | 64 (≈ 86.5 µM) |  |  | 64 (≈ 86.5 µM) | 128 (≈ 173 µM) | 256 (≈ 346 µM) | 64 (≈ 86.5 µM) | 128 (≈ 173 µM) | 64 (≈ 86.5 µM) |  |  |
| Cc1cc(NS(=O)(=O)c2ccc(NC(c3cc(O)c4c(c3)C(=O)c3cccc(O)c3C4=O)P(=O)(OC(C)C)OC(C)C)cc2)no1 (stereo not given) | 64 (≈ 95.6 µM) | 8 (≈ 11.9 µM) | 32 (≈ 47.8 µM) |  | 32 (≈ 47.8 µM) |  |  | 128 (≈ 191 µM) | 256 (≈ 382 µM) | 256 (≈ 382 µM) | 0.5 (≈ 0.747 µM) | 64 (≈ 95.6 µM) | 128 (≈ 191 µM) |  |  |
| COP(=O)(OC)C(Nc1ccc(S(N)(=O)=O)cc1)c1cc(O)c2c(c1)C(=O)c1cccc(O)c1C2=O (stereo not given) | 8 (≈ 15 µM) | 32 (≈ 60.1 µM) | 64 (≈ 120 µM) |  | 0.25 (≈ 0.47 µM) |  |  | 32 (≈ 60.1 µM) | 128 (≈ 240 µM) | 128 (≈ 240 µM) | 0.5 (≈ 0.939 µM) | 2 (≈ 3.76 µM) | 16 (≈ 30 µM) |  |  |
| Nc1ccc(S(=O)(=O)Nc2ncccn2)cc1 [SULFADIAZINE] | 32 (≈ 128 µM) | 64 (≈ 256 µM) | 8 (≈ 32 µM) |  | 16 (≈ 63.9 µM) |  |  | 64 (≈ 256 µM) | 256 (≈ 1020 µM) | 16 (≈ 63.9 µM) | 32 (≈ 128 µM) | 64 (≈ 256 µM) | 64 (≈ 256 µM) |  |  |
| CCOP(=O)(OCC)C(Nc1ccc(S(=O)(=O)Nc2nccs2)cc1)c1cc(O)c2c(c1)C(=O)c1cccc(O)c1C2=O (stereo not given) | 256 (≈ 398 µM) | 128 (≈ 199 µM) | 256 (≈ 398 µM) |  | 0.5 (≈ 0.777 µM) |  |  | 16 (≈ 24.9 µM) | 256 (≈ 398 µM) | 256 (≈ 398 µM) | 64 (≈ 99.4 µM) | 256 (≈ 398 µM) | 256 (≈ 398 µM) |  |  |
| COP(=O)(OC)C(Nc1ccc(S(=O)(=O)Nc2onc(C)c2C)cc1)c1cc(O)c2c(c1)C(=O)c1cccc(O)c1C2=O (stereo not given) | 0.5 (≈ 0.797 µM) | 256 (≈ 408 µM) | 8 (≈ 12.7 µM) |  | 64 (≈ 102 µM) |  |  | 2 (≈ 3.19 µM) | 32 (≈ 51 µM) | 8 (≈ 12.7 µM) | 4 (≈ 6.37 µM) | 128 (≈ 204 µM) | 2 (≈ 3.19 µM) |  |  |
| COP(=O)(OC)C(Nc1ccc(S(=O)(=O)Nc2nccs2)cc1)c1cc(O)c2c(c1)C(=O)c1cccc(O)c1C2=O (stereo not given) | 64 (≈ 104 µM) | 64 (≈ 104 µM) | 16 (≈ 26 µM) |  | 32 (≈ 52 µM) |  |  | 8 (≈ 13 µM) | 2 (≈ 3.25 µM) | 32 (≈ 52 µM) | 8 (≈ 13 µM) | 1 (≈ 1.62 µM) | 64 (≈ 104 µM) |  |  |
| CCCCOP(=O)(OCCCC)C(Nc1ccc(S(=O)(=O)Nc2cc(C)on2)cc1)c1cc(O)c2c(c1)C(=O)c1cccc(O)c1C2=O (stereo not given) | 64 (≈ 91.7 µM) | 64 (≈ 91.7 µM) | 64 (≈ 91.7 µM) |  | 256 (≈ 367 µM) |  |  | 128 (≈ 183 µM) | 256 (≈ 367 µM) | 128 (≈ 183 µM) | 64 (≈ 91.7 µM) | 128 (≈ 183 µM) | 16 (≈ 22.9 µM) |  |  |
